Data published in patent publication US12729381B2, “Methods and compositions for inactivating interleukin-2-inducible t-cell kinase (ITK)” (priority 2020, dated 2026).
Non-standard residues stand in square brackets, D forms with d. No end group written: not given here. *: point of attachment. FITC = O=C1OC2(c3ccc(O)cc3Oc3cc(O)ccc32)c2ccc(NC(=S)*)cc21; pY = N[C@@H](Cc1ccc(OP(=O)(O)O)cc1)C(=O)O

Test system: Tregs (CD4+CD25+FoxP3+)
Assay: Treg differentiation in total mouse T cells stimulated with anti-CD3
Assay type: cell-based
Conditions: anti-CD3, 5 to 24 hours; compared to vehicle alone or nonspecific peptide
Text: To ensure that the peptide easily enters cells and that its cellular localization can be monitored, a C-terminal TAT peptide (GRKKRRQRRRPQ) (SEQ ID NO:3) and an N-terminal fluorescent FITC dye were incorporated, respectively, and named it SLP76pTYR peptide ([…]). SLP76pTYR peptide (FITC Dye ^132NEEEEAPVEDDADpYEPPPSNDEEA^155-TAT) (SEQ ID NO:5) and non-specific control peptide (FITC Dye-[…]-TAT) (SEQ ID NO:6) were synthesized by Genscript Inc (Piscataway, NJ). These peptides were initially dissolved in 3% ammonia water to a final concentration of 10 mg/mL and then further diluted into PBS to a final concentration of 0.1 mg/mL. Fresh splenocytes were isolated from WT mice, and T cells were generated from splenocytes as previously described (Baker et al., 2001). […] Cells were examined for the presence of FITC by microscopy using a Leica DMi8 microscope equipped with an infinity total internal reflection fluorescence (TIRF) and DIC modules, a Lumencor SOLA SE II light box, a 150 mW 488 (GFP) laser and filter cube, a 100x/1.47 NA objective, and an Andor iXon Life 897 EMCCD camera. […]

FITC Dye ^132NEEEEAPVEDDADpYEPPPSNDEEA^155-TAT ({FITC}-NEEEEAPVEDDAD[pY]EPPPSNDEEAGRKKRRQRRRPQ) [SLP76pTYR]
differentiation of Treg cells: Significantly enhanced differentiation of Treg cells
